From paper PMC4810358, “Applicability of the Rayleigh equation for enantioselective metabolism of chiral xenobiotics by microsomes, hepatocytes and in-vivo retention in rabbit tissues” (Scientific Reports, 2016)

Assay: in vivo stereoselective metabolism of doxazosin, plasma concentration-time profiles (Kong et al.)
Settings: male Sprague–Dawley rats, from Fig. 3 in ref 25, R^2 = 0.92
Text: For example, Sun et al.[26] have reviewed the enantioselective behavior of the fungicide myclobutanil enantiomers in variant rabbit tissues following intravenous administration of the racemic fungicide. Using the plasma concentration-time curves of the two enantiomers (presented in Fig. 1A in ref. [26]) we obtained the enantiomeric enrichment factor of −28 ± 5 (R^2 = 0.97). Analysis of the distribution of myclobutanil in various tissues, presented in Fig. 3 in ref. [26], obtained the enantiomeric enrichment factors of −33 ± 16 (R^2 = 0.92) for the liver, −20 ± 6 (R^2 = 0.97) for the brain, −32 ± 16 (R^2 = 0.89) for the kidney and −21 ± 6 (R^2 = 0.97) for the muscle. […] This quantitative ranking is obscured by the large number of time trace data points in the original presentation. Another example can be presented by the study of Kong et al.[25] reporting on the stereoselective metabolism of the alpha blocker doxazosin (DOX) in vivo in male Sprague–Dawley rats.

enantiomeric enrichment factor: −45 ± 13
Compound: COc1cc2nc(N3CCN(C(=O)C4COc5ccccc5O4)CC3)nc(N)c2cc1OC (stereo not shown) [DOX, doxazosin]
